From ChEMBL document CHEMBL1141681, “Bradykinin B1 receptor antagonists: an alpha-hydroxy amide with an improved metabolism profile” (Bioorg Med Chem Lett, 2008) come the findings set out here.

The Papp is the rate of passage across a membrane or cell layer, normalised by area and donor concentration. As usually defined, the half-life is how long it takes for the measured level to halve. One may read the Ki as a measure of affinity in units of concentration, obtained from inhibition or displacement. What is called bioavailability is the share of a dose that reaches the circulation, judged against a reference dose that is usually intravenous. What is called Kp is tissue or fluid exposure divided by exposure in the circulation.

Each structure is given as a SMILES string.

In series [1] the test system is MDR1 (human). Nature of the series: (§1) Apparent permeability across pig L-MDR1 cells overexpressing human MDR1 at 5 uM after 3 hrs by LC/MS/MS analysis. The class given is ADME, cell-based, Sus scrofa. As to conditions: LLC-PK1.
A short description of series [2]: Clearance in mongrel dog at 3 mg/kg, po and 1 mg/kg, iv. Type of series: ADME, organism-based, Canis lupus familiaris. The following applies: in vivo.
Series [3] is described as follows: (§2) Half life in mongrel dog at 3 mg/kg, po and 1 mg/kg, iv. As to conditions: mongrel, in vivo. The class given is ADME, organism-based, Canis lupus familiaris.
Series [4] is described as follows: Ratio of permeability from basolateral to apical side to apical to basolateral side in pig L-MDR1 cells overexpressing human MDR1 at 5 uM after 3 hrs by LC/MS/MS analysis. Type of series: ADME, cell-based, Sus scrofa. The following applies: l-mdr1, 3 h.
Series [5] deals with T1, B1 bradykinin receptor (Homo sapiens, UniProt P46663).
T1 sequence (P46663 whole entry): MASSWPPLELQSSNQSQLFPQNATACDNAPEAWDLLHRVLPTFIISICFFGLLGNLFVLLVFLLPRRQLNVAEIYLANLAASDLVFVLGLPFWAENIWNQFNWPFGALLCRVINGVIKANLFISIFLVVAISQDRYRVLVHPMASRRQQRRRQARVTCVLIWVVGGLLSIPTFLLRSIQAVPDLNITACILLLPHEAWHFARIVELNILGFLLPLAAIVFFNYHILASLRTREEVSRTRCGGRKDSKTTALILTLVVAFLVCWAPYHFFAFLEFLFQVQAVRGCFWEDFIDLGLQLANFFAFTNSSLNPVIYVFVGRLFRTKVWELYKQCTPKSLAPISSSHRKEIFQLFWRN
Nature of the series: Displacement of [3H]des-arg10leu9kallidin from human bradykinin B1 receptor expressed in CHO cells by Wallac beta-plate scintillation counting. The class given is cell-based.

Series [6] in a line: Oral bioavailability in mongrel dog at 3 mg/kg. Type of series: ADME, organism-based, Canis lupus familiaris. The following applies: in vivo.
Series [7] can be described thus: Oral bioavailability in Sprague-Dawley rat at 10 mg/kg. The following applies: in vivo. The class given is ADME, organism-based.
For series [8], the target named is Rattus norvegicus. The series is described as follows: Ex vivo displacement of [35S]N-{2-[4-(4,5-dihydro-1H-imidazol-2-yl)phenyl]ethyl}-2-[(2R)-1-(2-naphthylsulfonyl)-3-oxo-1,2,3,4-tetrahydroquinoxalin-2-yl]acetamide from human bradykinin B1 receptor expressed in iv dosed Sprague-Dawley rat brain by liquid scintillation counting. Type of series: functional, organism-based. (In a radioligand displacement assay an active substance lowers the binding of a labelled ligand.)

Series [9] can be described thus: Clearance in Sprague-Dawley rat at 10 mg/kg, po and 2 mg/kg, iv. The following applies: in vivo. The class given is ADME, organism-based.
Series [10] is described as follows: Ratio of drug level in brain to plasma of african green monkey at 2 mg/kg, iv after 30 mins by LC/MS/MS analysis. Type of series: ADME, organism-based. Also noted: dose 2 mg/kg, route intravenous. The following applies: chlorocebus aethiops, brain and plasma.
The nature of series [11]: Half life in Sprague-Dawley rat at 10 mg/kg, po and 2 mg/kg, iv. Type of series: ADME, organism-based. The following applies: in vivo.
Series [12] relates to Canis familiaris. Described as §2. The class given is ADME, organism-based, Canis lupus familiaris. As to conditions: in vivo.
Series [13] in a line: as §1. Type of series: ADME, cell-based, Sus scrofa. The following applies: l-mdr1, 3 h, 5 µM, 3 h.

On to `Cc1nc(-c2c(F)cc(Cl)cc2-c2cnc([C@@H](C)NC(=O)[C@@](C)(O)C(F)(F)F)c(F)c2)no1`, for which, in series [1], the Papp at 3 h, 5 µM stood at 27 ×10⁻⁶ cm/s. This molecule also registered a clearance in series [2] of 0.5 mL/min/kg.

For `C[C@@H](NC(=O)C1(O)CCS(=O)(=O)C1)c1ncc(-c2cc(Cl)cc(F)c2-c2nnn(C)n2)cc1F` (stereo partly specified), the Papp at 3 h, 5 µM in series [1] was 22 ×10⁻⁶ cm/s. Besides, in [3], the half-life was 9.9 h. The Ratio in [4] was 29. The affinity in series [5] corresponds to a Ki of 0.69 nM. For the same molecule, the clearance in series [2] amounted to 0.5 mL/min/kg.

`C[C@@H](NC(=O)C1(O)CCOCC1)c1ncc(-c2cc(Cl)cc(F)c2-c2nnn(C)n2)cc1F`: the Papp at 3 h, 5 µM in series [1] stood at 24 ×10⁻⁶ cm/s. Also, the Ratio in [4] turned out to be 8.2. The molecule further came in with a Ki in series [5] of 0.96 nM.

Consider `C[C@@H](NC(=O)C1(O)CCC(F)(F)CC1)c1ncc(-c2cc(Cl)cc(F)c2-c2nnn(C)n2)cc1F`, for which the results for the bioavailability in [6] and in series [7] were 91% and 62%, respectively. Also, the Papp at 3 h, 5 µM in [1] came to 31 ×10⁻⁶ cm/s. Besides, the half-life was 20.3 h in series [3] and 5.6 h in series [11]. The Ratio in series [4] turned out to be 2. Moreover, the Ki in series [5] came to 0.41 nM; in series [8], 140 nM. The results for the clearance in series [2] and in series [9] were 1 mL/min/kg and 2.2 mL/min/kg, respectively. Further, the Kp at 0.5 h in series [10] was 0.63.

As to `C[C@@H](NC(=O)C1(O)CCC(=O)C1)c1ncc(-c2cc(Cl)cc(F)c2-c2nnn(C)n2)cc1F` (stereo partly specified), the Papp at 3 h, 5 µM in series [1] stood at 31 ×10⁻⁶ cm/s. The half-life in [3] is 9.8 h. In addition, the Ratio in series [4] is 16. The molecule further showed a Ki in series [5] of 0.67 nM. This molecule returned a clearance in series [2] of 0.3 mL/min/kg.

`C[C@@H](NC(=O)[C@@](C)(O)C(F)(F)F)c1ncc(-c2cc(Cl)cc(F)c2-c2noc(CO)n2)cc1F` came in with a Ki in [5] of 0.8 nM.

Turning to `C[C@@H](NC(=O)C1(O)CCSC1)c1ncc(-c2cc(Cl)cc(F)c2-c2nnn(C)n2)cc1F` (stereo partly specified), the Papp at 3 h, 5 µM in series [1] amounted to 31 ×10⁻⁶ cm/s. The molecule further had a half-life in series [3] of 5.4 h. For the same molecule, the Ratio in [4] is 2.9. The molecule also registered a Ki in [5] of 0.39 nM. Also, the clearance in [2] stood at 3.2 mL/min/kg.

For `C[C@@H](NC(=O)C1(O)CC[S+]([O-])C1)c1ncc(-c2cc(Cl)cc(F)c2-c2nnn(C)n2)cc1F` (stereo partly specified), the Papp at 3 h, 5 µM in series [1] amounted to 24 ×10⁻⁶ cm/s. Moreover, in [3], the half-life was 3.1 h. The Ratio in series [4] was found to be 14.3. In series [5], affinity was put at a Ki of 1.6 nM. In series [2], this molecule had a clearance of 2.3 mL/min/kg.

`C[C@@H](NC(=O)C1(O)CCCC1)c1ncc(-c2cc(Cl)cc(F)c2-c2nnn(C)n2)cc1F`: the bioavailability in [7] is 26%. The Papp at 3 h, 5 µM in [1] came out at 29 ×10⁻⁶ cm/s. The half-life is 4.7 h in [3] and 5.5 h in series [11]. Also, the Ratio in series [4] came to 2.1. The inhibitory constant (Ki) in [5] is 0.48 nM; in series [8], 214 nM. Besides, the clearance in [2] was found to be 0.6 mL/min/kg; in series [9], 10 mL/min/kg.

As for `CC(NC(=O)C1(O)CCC(F)(F)C1)c1ncc(-c2cc(Cl)cc(F)c2-c2nnn(C)n2)cc1F` (stereo in doubt; 11f), the Papp at 3 h, 5 µM in series [1] was 29 ×10⁻⁶ cm/s. In [12], this molecule displayed a t1/2 of 3 h. In [4] (3 h), the Ratio is given as 2.6. Moreover, the Ki in series [5] stood at 1 nM. In addition, the clearance in series [2] came out at 0.3 mL/min/kg.

For the molecule `CC(NC(=O)C1(O)CCC(F)(F)C1)c1ncc(-c2cc(Cl)cc(F)c2-c2nnn(C)n2)cc1F` (stereo in doubt; 11g), the results for the bioavailability in series [6] and in [7] were 85% and 96%, respectively. Besides, the Papp in series [13] came out at 32 ×10⁻⁶ cm/s. The molecule further had a t1/2 in series [12] of 19 h. Also, the Ratio in series [4] (3 h) is 1.9. The Ki in [5] is 0.67 nM; in series [8], 120 nM. In series [9], this molecule came in with a clearance of 5.2 mL/min/kg. Also, the Kp at 0.5 h in series [10] is 0.55. The same molecule had a half-life in series [11] of 4.1 h.
